Assay results published in ChEMBL document CHEMBL3046407, “Toxicity of monoterpenes against larvae and adults of Colorado potato beetle, Leptinotarsa decemlineata Say (Coleoptera: Chrysomelidae)” (2007).

Assays:
Assay type in all cases: functional
[1] = tested on: Leptinotarsa decemlineata; experiment: Insecticidal activity against second-instar larval stage of Leptinotarsa decemlineata infested potato leaves assessed as mortality at 20 ul after 96 hr (reference value: 3.3 +/- 3.3%)
[2] = tested on: Leptinotarsa decemlineata; experiment: Insecticidal activity against second-instar larval stage of Leptinotarsa decemlineata infested potato leaves assessed as mortality at 20 ul after 48 hr (reference value: 3.3 +/- 3.3%)
[3] = tested on: Leptinotarsa decemlineata; experiment: Insecticidal activity against second-instar larval stage of Leptinotarsa decemlineata infested potato leaves assessed as mortality at 20 ul after 24 hr (reference value: 3.3 +/- 3.3%)
[4] = tested on: Leptinotarsa decemlineata; experiment: Insecticidal activity against second-instar larval stage of Leptinotarsa decemlineata infested potato leaves assessed as mortality at 10 ul after 12 hr relative to control
[5] = tested on: Leptinotarsa decemlineata; experiment: Insecticidal activity against adult Leptinotarsa decemlineata infested potato leaves assessed as mortality at 20 ul after 96 hr relative to control
[6] = tested on: Leptinotarsa decemlineata; experiment: Insecticidal activity against adult Leptinotarsa decemlineata infested potato leaves assessed as mortality at 20 ul after 48 hr relative to control
[7] = tested on: Leptinotarsa decemlineata; experiment: Insecticidal activity against adult Leptinotarsa decemlineata infested potato leaves assessed as mortality at 20 ul after 24 hr relative to control
[8] = tested on: Leptinotarsa decemlineata; experiment: Insecticidal activity against adult Leptinotarsa decemlineata infested potato leaves assessed as mortality at 20 ul after 12 hr relative to control
[9] = tested on: Leptinotarsa decemlineata; experiment: Insecticidal activity against adult Leptinotarsa decemlineata infested potato leaves assessed as mortality at 10 ul after 96 hr relative to control
[10] = tested on: Leptinotarsa decemlineata; experiment: Insecticidal activity against adult Leptinotarsa decemlineata infested potato leaves assessed as mortality at 10 ul after 48 hr relative to control
[11] = tested on: Leptinotarsa decemlineata; experiment: Insecticidal activity against adult Leptinotarsa decemlineata infested potato leaves assessed as mortality at 10 ul after 24 hr relative to control
[12] = tested on: Leptinotarsa decemlineata; experiment: Insecticidal activity against adult Leptinotarsa decemlineata infested potato leaves assessed as mortality at 10 ul after 12 hr relative to control
[13] = tested on: Leptinotarsa decemlineata; experiment: Insecticidal activity against second-instar larval stage of Leptinotarsa decemlineata infested potato leaves assessed as mortality at 20 ul after 12 hr relative to control
[14] = tested on: Leptinotarsa decemlineata; experiment: Insecticidal activity against second-instar larval stage of Leptinotarsa decemlineata infested potato leaves assessed as mortality at 10 ul after 96 hr (reference value: 3.3 +/- 3.3%)
[15] = tested on: Leptinotarsa decemlineata; experiment: Insecticidal activity against second-instar larval stage of Leptinotarsa decemlineata infested potato leaves assessed as mortality at 10 ul after 48 hr (reference value: 3.3 +/- 3.3%)
[16] = tested on: Leptinotarsa decemlineata; experiment: Insecticidal activity against second-instar larval stage of Leptinotarsa decemlineata infested potato leaves assessed as mortality at 10 ul after 24 hr (reference value: 3.3 +/- 3.3%)
[17] = tested on: Leptinotarsa decemlineata; experiment: Insecticidal activity against first-instar larval stage of Leptinotarsa decemlineata infested potato leaves assessed as mortality at 20 ul after 96 hr relative to control
[18] = tested on: Leptinotarsa decemlineata; experiment: Insecticidal activity against first-instar larval stage of Leptinotarsa decemlineata infested potato leaves assessed as mortality at 20 ul after 48 hr relative to control
[19] = tested on: Leptinotarsa decemlineata; experiment: Insecticidal activity against first-instar larval stage of Leptinotarsa decemlineata infested potato leaves assessed as mortality at 20 ul after 24 hr relative to control
[20] = tested on: Leptinotarsa decemlineata; experiment: Insecticidal activity against first-instar larval stage of Leptinotarsa decemlineata infested potato leaves assessed as mortality at 20 ul after 12 hr relative to control
[21] = tested on: Leptinotarsa decemlineata; experiment: Insecticidal activity against first-instar larval stage of Leptinotarsa decemlineata infested potato leaves assessed as mortality at 10 ul after 96 hr relative to control
[22] = tested on: Leptinotarsa decemlineata; experiment: Insecticidal activity against first-instar larval stage of Leptinotarsa decemlineata infested potato leaves assessed as mortality at 10 ul after 48 hr relative to control
[23] = tested on: Leptinotarsa decemlineata; experiment: Insecticidal activity against first-instar larval stage of Leptinotarsa decemlineata infested potato leaves assessed as mortality at 10 ul after 12 hr relative to control
[24] = tested on: Leptinotarsa decemlineata; experiment: Insecticidal activity against first-instar larval stage of Leptinotarsa decemlineata infested potato leaves assessed as mortality at 10 ul after 24 hr relative to control
[25] = tested on: Leptinotarsa decemlineata; experiment: Insecticidal activity against third-instar larval stage of Leptinotarsa decemlineata infested potato leaves assessed as mortality at 20 ul after 96 hr (reference value: 3.3 +/- 3.3%)
[26] = tested on: Leptinotarsa decemlineata; experiment: Insecticidal activity against third-instar larval stage of Leptinotarsa decemlineata infested potato leaves assessed as mortality at 20 ul after 48 hr (reference value: 3.3 +/- 3.3%)
[27] = tested on: Leptinotarsa decemlineata; experiment: Insecticidal activity against third-instar larval stage of Leptinotarsa decemlineata infested potato leaves assessed as mortality at 20 ul after 24 hr relative to control
[28] = tested on: Leptinotarsa decemlineata; experiment: Insecticidal activity against third-instar larval stage of Leptinotarsa decemlineata infested potato leaves assessed as mortality at 20 ul after 12 hr relative to control
[29] = tested on: Leptinotarsa decemlineata; experiment: Insecticidal activity against third-instar larval stage of Leptinotarsa decemlineata infested potato leaves assessed as mortality at 10 ul after 96 hr (reference value: 3.3 +/- 3.3%)
[30] = tested on: Leptinotarsa decemlineata; experiment: Insecticidal activity against third-instar larval stage of Leptinotarsa decemlineata infested potato leaves assessed as mortality at 10 ul after 48 hr (reference value: 3.3 +/- 3.3%)
[31] = tested on: Leptinotarsa decemlineata; experiment: Insecticidal activity against third-instar larval stage of Leptinotarsa decemlineata infested potato leaves assessed as mortality at 10 ul after 24 hr relative to control
[32] = tested on: Leptinotarsa decemlineata; experiment: Insecticidal activity against third-instar larval stage of Leptinotarsa decemlineata infested potato leaves assessed as mortality at 10 ul after 12 hr relative to control

Row | Compound | mortality [1] [%] | mortality [2] [%] | mortality [3] [%] | mortality [4] [%] | mortality [5] [%] | mortality [6] [%] | mortality [7] [%] | mortality [8] [%] | mortality [9] [%] | mortality [10] [%] | mortality [11] [%] | mortality [12] [%] | mortality [13] [%] | mortality [14] [%] | mortality [15] [%] | mortality [16] [%] | mortality [17] [%] | mortality [18] [%] | mortality [19] [%] | mortality [20] [%] | further results
1 | C=CC(=C)CCC=C(C)C [MYRCENE] | 100 | 100 | 90 | 56.7 | 100 | 96.7 | 90 | 73.3 | 100 | 100 | 93.3 | 46.7 | 73.3 | 93.3 | 93.3 | 93.3 | 100 | 100 | 90 | 36.7 | mortality [21]: 93.3%; mortality [22]: 93.3%; mortality [23]: 20%; mortality [24]: 80%; mortality [25]: 76.7%; mortality [26]: 73.3%; mortality [27]: 70%; mortality [28]: 36.7%; mortality [29]: 60%; mortality [30]: 56.7%; mortality [31]: 53.3%; mortality [32]: 26.7%
2 | CC1=CCC2C(C1)C2(C)C (stereo unspecified) [CARENE] | 93.3 | 93.3 | 86.7 | 46.7 | 86.7 | 86.7 | 80 | 50 | 80 | 80 | 73.3 | 36.7 | 76.7 | 100 | 100 | 73.3 | 86.7 | 86.7 | 70 | 56.7 | mortality [21]: 100%; mortality [22]: 86.7%; mortality [23]: 36.7%; mortality [24]: 63.3%; mortality [25]: 100%; mortality [26]: 100%; mortality [27]: 100%; mortality [28]: 100%; mortality [29]: 100%; mortality [30]: 100%; mortality [31]: 100%; mortality [32]: 100%
3 | C=C(C)[C@@H]1CC[C@@H](C)C(=O)C1 [DIHYDROCARVONE] | 100 | 86.7 | 83.3 | 23.3 | 80 | 63.3 | 23.3 | 0 | 63.3 | 53.3 | 30 | 6.7 | 36.7 | 83.3 | 76.7 | 63.3 | 80 | 70 | 50 | 26.7 | mortality [21]: 40%; mortality [22]: 33.3%; mortality [23]: 0%; mortality [24]: 33.3%; mortality [25]: 76.7%; mortality [26]: 60%; mortality [27]: 46.7%; mortality [28]: 16.7%; mortality [29]: 23.3%; mortality [30]: 16.7%; mortality [31]: 16.7%; mortality [32]: 0%
